Assay results published in ChEMBL document CHEMBL5244223, “l,8-Naphthalimide based DNA intercalators and anticancer agents. A systematic review from 2007 to 2017” (Eur J Med Chem, 2018).
pIC50: −log10 of the molar value.

Tests used:
[1] = system: Bel-7402; assay: Cytotoxicity against human Bel-7402 cells assessed as inhibition of cell growth incubated for 48 hrs by MTT assay; assay type: functional, cell-based; settings: Bel-7402, 48 h
[2] = Cytotoxicity against human QSG7701 cells assessed as inhibition of cell growth incubated for 48 hrs by MTT assay; assay type: toxicity, cell-based
[3] = system: SMMC-7721; assay: Antiproliferative activity against human SMMC-7721 cells assessed as inhibition of cell proliferation incubated for 48 hrs by MTT assay; assay type: functional, cell-based; settings: SMMC-7721, 48 h
[4] = system: MCF7; assay: Antiproliferative activity against human MCF7 cells assessed as inhibition of cell proliferation incubated for 48 hrs by MTT assay; assay type: functional, cell-based; settings: MCF7, 48 h
[5] = system: HeLa; assay: Antiproliferative activity against human HeLa cells assessed as inhibition of cell proliferation incubated for 48 hrs by MTT assay; assay type: functional, cell-based
[6] = system: Staphylococcus aureus; assay: Antibacterial activity against Staphylococcus aureus MTCC 96 assessed as zone of inhibition at 50 ug/ml by well diffusion assay; assay type: functional; settings: read-out: IZ
[7] = system: Staphylococcus epidermidis; assay: Antibacterial activity against Staphylococcus epidermidis MTCC 435 assessed as zone of inhibition at 50 ug/ml by well diffusion assay; assay type: functional; settings: read-out: IZ
[8] = system: Pseudomonas aeruginosa; assay: Antibacterial activity against Pseudomonas aeruginosa MTCC 741 assessed as zone of inhibition at 50 ug/ml by well diffusion assay; assay type: functional; settings: read-out: IZ
[9] = system: Escherichia coli; assay: Antibacterial activity against Escherichia coli MTCC 443 assessed as zone of inhibition at 50 ug/ml by well diffusion assay; assay type: functional; settings: read-out: IZ
[10] = system: Aspergillus niger; assay: Antifungal activity against Aspergillus niger MTCC 282 assessed as zone of inhibition at 100 ug/ml by well diffusion assay; assay type: functional; settings: read-out: IZ
[11] = system: Candida albicans; assay: Antifungal activity against Candida albicans MTCC 227 assessed as zone of inhibition at 100 ug/ml by well diffusion assay; assay type: functional; settings: read-out: IZ
[12] = system: Rhizopus arrhizus; assay: Antifungal activity against Rhizopus oryzae MTCC 262 assessed as zone of inhibition at 100 ug/ml by well diffusion assay; assay type: functional; settings: read-out: IZ
[13] = system: Saccharomyces cerevisiae; assay: Antifungal activity against Saccharomyces cerevisiae MTCC 36 assessed as zone of inhibition at 100 ug/ml by well diffusion assay; assay type: functional; settings: read-out: IZ
[14] = system: HCT-15; assay: Cytotoxicity against human HCT-15 cells assessed as inhibition of cell growth incubated for 24 hrs by sulforhodamine B assay; assay type: functional, cell-based; settings: HCT-15, 24 h

NCCCNCCCCNCCCN1C(=O)c2cccc3cc([N+](=O)[O-])cc(c23)C1=O
pIC50 [1]: 5.97
IC50 at 48 h [2]: > 50 µM

CCCCN1C(=O)c2cccc3cc(-n4cc(-c5ccccc5)nn4)cc(c23)C1=O
pIC50 [3]: 6.52
pIC50 [4]: 6.52
pIC50 [5]: 6.52

CCC1=C(C(=O)OC(F)(F)F)C(CN2C(=O)c3cccc4cccc(c34)C2=O)NC(=S)N1 (centres undefined)
zone of inhibition at 50 µg/mL [6]: 15 mm
zone of inhibition at 50 µg/mL [7]: 15 mm
zone of inhibition at 50 µg/mL [8]: 12 mm
zone of inhibition at 50 µg/mL [9]: 12 mm
zone of inhibition at 100 µg/mL [10]: 12 mm
zone of inhibition at 100 µg/mL [11]: 12 mm
zone of inhibition at 100 µg/mL [12]: 12 mm
zone of inhibition at 100 µg/mL [13]: 12 mm

O=C1c2cccc3cc(-n4cc(-c5ccccc5)nn4)cc(c23)C(=O)N1CCN1CCNCC1
pIC50 [3]: 6.52
pIC50 [4]: 6.52
pIC50 [5]: 6.52

CCC1=C(C(=O)Oc2ccccc2)C(CN2C(=O)c3cccc4cccc(c34)C2=O)NC(=O)N1 (centres undefined)
zone of inhibition at 50 µg/mL [6]: 15 mm
zone of inhibition at 50 µg/mL [7]: 15 mm
zone of inhibition at 50 µg/mL [8]: 12 mm
zone of inhibition at 50 µg/mL [9]: 12 mm
zone of inhibition at 100 µg/mL [10]: 12 mm
zone of inhibition at 100 µg/mL [11]: 12 mm
zone of inhibition at 100 µg/mL [12]: 12 mm
zone of inhibition at 100 µg/mL [13]: 12 mm

NCCCCNCCCCNCCCCN1C(=O)c2cccc3cc(N)cc(c23)C1=O
pIC50 [1]: 5.97
IC50 at 48 h [2]: > 50 µM

CCCC1=C(C(=O)OC)C(CN2C(=O)c3cccc4cccc(c34)C2=O)NC(=S)N1 (centres undefined)
zone of inhibition at 50 µg/mL [6]: 15 mm
zone of inhibition at 50 µg/mL [7]: 15 mm
zone of inhibition at 50 µg/mL [8]: 12 mm
zone of inhibition at 50 µg/mL [9]: 12 mm
zone of inhibition at 100 µg/mL [10]: 12 mm
zone of inhibition at 100 µg/mL [11]: 12 mm
zone of inhibition at 100 µg/mL [12]: 12 mm
zone of inhibition at 100 µg/mL [13]: 12 mm

CCC1=C(C(=O)OC)C(CN2C(=O)c3cccc4cccc(c34)C2=O)NC(=S)N1 (centres undefined)
zone of inhibition at 50 µg/mL [6]: 15 mm
zone of inhibition at 50 µg/mL [7]: 15 mm
zone of inhibition at 50 µg/mL [8]: 12 mm
zone of inhibition at 50 µg/mL [9]: 12 mm
zone of inhibition at 100 µg/mL [10]: 12 mm
zone of inhibition at 100 µg/mL [11]: 12 mm
zone of inhibition at 100 µg/mL [12]: 12 mm
zone of inhibition at 100 µg/mL [13]: 12 mm

NCCCCN1C(=O)c2cccc3cccc(c23)C1=O
pIC50 [14]: 5.61

NCCCNCCCNCCCN1C(=O)c2cccc3c(Cl)ccc(c23)C1=O
pIC50 [1]: 5.97
IC50 at 48 h [2]: > 50 µM

CCCCN1C(=O)c2cccc3cc(-n4ccnn4)cc(c23)C1=O
pIC50 [3]: 6.52
pIC50 [4]: 6.52
pIC50 [5]: 6.52

NCCCN1C(=O)c2cccc3cccc(c23)C1=O [NAPHTHALIMIDOPROPYLAMINE]
pIC50 [14]: 5.61

CCC1=C(C(=O)OC(F)(F)F)C(CN2C(=O)c3cccc4cccc(c34)C2=O)NC(=O)N1 (centres undefined)
zone of inhibition at 50 µg/mL [6]: 15 mm
zone of inhibition at 50 µg/mL [7]: 15 mm
zone of inhibition at 50 µg/mL [8]: 12 mm
zone of inhibition at 50 µg/mL [9]: 12 mm
zone of inhibition at 100 µg/mL [10]: 12 mm
zone of inhibition at 100 µg/mL [11]: 12 mm
zone of inhibition at 100 µg/mL [12]: 12 mm
zone of inhibition at 100 µg/mL [13]: 12 mm

NCCN1C(=O)c2cccc3cccc(c23)C1=O
pIC50 [14]: 5.61

NCCCNCCCCNCCCCN1C(=O)c2cccc3cccc(c23)C1=O
pIC50 [1]: 5.97
IC50 at 48 h [2]: > 50 µM

COC(=O)C1=C(C)NC(=S)NC1CN1C(=O)c2cccc3cccc(c23)C1=O (centres undefined)
zone of inhibition at 50 µg/mL [6]: 15 mm
zone of inhibition at 50 µg/mL [7]: 15 mm
zone of inhibition at 50 µg/mL [8]: 12 mm
zone of inhibition at 50 µg/mL [9]: 12 mm
zone of inhibition at 100 µg/mL [10]: 12 mm
zone of inhibition at 100 µg/mL [11]: 12 mm
zone of inhibition at 100 µg/mL [12]: 12 mm
zone of inhibition at 100 µg/mL [13]: 12 mm

CCOC(=O)C1=C(CC)NC(=S)NC1CN1C(=O)c2cccc3cccc(c23)C1=O (centres undefined)
zone of inhibition at 50 µg/mL [6]: 15 mm
zone of inhibition at 50 µg/mL [7]: 15 mm
zone of inhibition at 50 µg/mL [8]: 12 mm
zone of inhibition at 50 µg/mL [9]: 12 mm
zone of inhibition at 100 µg/mL [10]: 12 mm
zone of inhibition at 100 µg/mL [11]: 12 mm
zone of inhibition at 100 µg/mL [12]: 12 mm
zone of inhibition at 100 µg/mL [13]: 12 mm

O=C1c2cccc3cc(-n4cc(-c5ccccc5)nn4)cc(c23)C(=O)N1CCO
pIC50 [3]: 6.52
pIC50 [4]: 6.52
pIC50 [5]: 6.52

CCN(CC)CCN1C(=O)c2cccc3cc(-n4ccnn4)cc(c23)C1=O
pIC50 [3]: 6.52
pIC50 [4]: 6.52
pIC50 [5]: 6.52

O=C1c2cccc3cccc(c23)C(=O)N1CCn1cc(-c2ccccc2)nn1
pIC50 [14]: 5.61

NCCCCNCCCCNCCCCN1C(=O)c2cccc3c(Cl)ccc(c23)C1=O
pIC50 [1]: 5.97
IC50 at 48 h [2]: > 50 µM

O=C1c2cccc3cccc(c23)C(=O)N1CCCNCc1cccs1
pIC50 [14]: 5.61

CCN(CC)CCN1C(=O)c2cccc3cc(-n4cc(-c5ccccc5)nn4)cc(c23)C1=O
pIC50 [3]: 6.52
pIC50 [4]: 6.52
pIC50 [5]: 6.52

NCCCNCCCCNCCCN1C(=O)c2cccc3c(Br)ccc(c23)C1=O
pIC50 [1]: 5.97
IC50 at 48 h [2]: > 50 µM

O=C1c2cccc3cccc(c23)C(=O)N1CCCn1cc(-c2ccccc2)nn1
pIC50 [14]: 5.61

O=C1c2cccc3cc(-n4ccnn4)cc(c23)C(=O)N1CCO
pIC50 [3]: 6.52
pIC50 [4]: 6.52
pIC50 [5]: 6.52

NCCCCNCCCCNCCCCN1C(=O)c2cccc3cc([N+](=O)[O-])cc(c23)C1=O
pIC50 [1]: 5.97
IC50 at 48 h [2]: > 50 µM

O=C1c2cccc3cccc(c23)C(=O)N1CCCNCc1ccco1
pIC50 [14]: 5.61

NCCCNCCCCNCCCN1C(=O)c2cccc3c(Cl)ccc(c23)C1=O
pIC50 [1]: 5.97
IC50 at 48 h [2]: > 50 µM

O=C1c2cccc3cccc(c23)C(=O)N1CCCCn1cc(-c2ccccc2)nn1
pIC50 [14]: 5.61

NCCCCNCCCCNCCCCN1C(=O)c2cccc3cccc(c23)C1=O
pIC50 [1]: 5.97
IC50 at 48 h [2]: > 50 µM

CCCC1=C(C(=O)OC)C(CN2C(=O)c3cccc4cccc(c34)C2=O)NC(=O)N1 (centres undefined)
zone of inhibition at 50 µg/mL [6]: 15 mm
zone of inhibition at 50 µg/mL [7]: 15 mm
zone of inhibition at 50 µg/mL [8]: 12 mm
zone of inhibition at 50 µg/mL [9]: 12 mm
zone of inhibition at 100 µg/mL [10]: 12 mm
zone of inhibition at 100 µg/mL [11]: 12 mm
zone of inhibition at 100 µg/mL [12]: 12 mm
zone of inhibition at 100 µg/mL [13]: 12 mm

COC(=O)C1=C(C)NC(=O)NC1CN1C(=O)c2cccc3cccc(c23)C1=O (centres undefined)
zone of inhibition at 50 µg/mL [6]: 15 mm
zone of inhibition at 50 µg/mL [7]: 15 mm
zone of inhibition at 50 µg/mL [8]: 12 mm
zone of inhibition at 50 µg/mL [9]: 12 mm
zone of inhibition at 100 µg/mL [10]: 12 mm
zone of inhibition at 100 µg/mL [11]: 12 mm
zone of inhibition at 100 µg/mL [12]: 12 mm
zone of inhibition at 100 µg/mL [13]: 12 mm

CN(C)CCN1C(=O)c2cccc3cc(-n4cc(-c5ccccc5)nn4)cc(c23)C1=O
pIC50 [3]: 6.52
pIC50 [4]: 6.52
pIC50 [5]: 6.52

NCCCNCCCCNCCCN1C(=O)c2cccc3cc(N)cc(c23)C1=O
pIC50 [1]: 5.97
IC50 at 48 h [2]: > 50 µM

NCCCNCCCNCCCN1C(=O)c2cccc3cc(N)cc(c23)C1=O
pIC50 [1]: 5.97
IC50 at 48 h [2]: > 50 µM

NCCCCNCCCCNCCCN1C(=O)c2cccc3cccc(c23)C1=O
pIC50 [1]: 5.97
IC50 at 48 h [2]: > 50 µM

CCC1=C(C(=O)OC)C(CN2C(=O)c3cccc4cccc(c34)C2=O)NC(=O)N1 (centres undefined)
zone of inhibition at 50 µg/mL [6]: 15 mm
zone of inhibition at 50 µg/mL [7]: 15 mm
zone of inhibition at 50 µg/mL [8]: 12 mm
zone of inhibition at 50 µg/mL [9]: 12 mm
zone of inhibition at 100 µg/mL [10]: 12 mm
zone of inhibition at 100 µg/mL [11]: 12 mm
zone of inhibition at 100 µg/mL [12]: 12 mm
zone of inhibition at 100 µg/mL [13]: 12 mm

O=C1c2cccc3cc(-n4ccnn4)cc(c23)C(=O)N1CCN1CCNCC1
pIC50 [3]: 6.52
pIC50 [4]: 6.52
pIC50 [5]: 6.52
